Read-outs that look alike come from different tables or passages of the source.
Columns and labels:
[1] = Tolerability / body weight relative to starting weight in nude Balb/c mice bearing H1048 tumors; type: in vivo; conditions: once per week i.p.; 30 mg/kg; FIG. 1 (D), (E)
Protocol: FIG. 1. Provided compounds can provide various activities including inhibiting tumor growth in vivo. (A): Provided compounds can inhibit tumor growth in vivo. Nude Balb/c mice were inoculated with NCI-H1048 cells in Matrigel. Tumors were allowed to grow up to about 200 mm^3 and mice were then randomized into two groups. Mice were dosed intraperitoneally (i.p.) once per week with vehicle or 30 mg/kg compound 22. Tumor size was measured every three to four days and mice were sacrificed once vehicle tumors reached 2000 mm^3. Error bar is SEM. Dosing started at day 17 post tumor inoculation. (B): Provided technologies can reduce KAT2A and KAT2B levels and histone acetylation levels. […] Vehicle is DMSO. […] Cell count data relative to DMSO control after 8 days of treatment with compound 22 are presented as examples to confirm inhibition. GI50=6 nM. (D): Provided technologies can inhibit tumor growth in vivo. Nude balb/c mice inoculated with H1048 tumors were dosed intraperitoneally once per week (qw i.p.) with vehicle (HbCD) or compound 22. Average tumor volumes+/−SEM from 6 mice are represented. […] See also (A). […] Certain body weights relative to starting weight are presented as examples to confirm tolerability and safety. (F): Provided technologies can reduce KAT2A and KAT2B levels and histone acetylation levels in tumor in vivo. […]

[2] = system: LASCPC-01 cells; assay: Cell growth inhibition, neuroendocrine prostate cancer line LASCPC-01 (Cell Titer Glo, day 7); type: cell-based
Source text: Among other things, provided technologies are useful for treating various diseases, disorders, or conditions. For example, in some embodiments, provided technologies are useful for treating cancer as confirmed in the present Example. […] In some embodiments, provided technologies can inhibit cell proliferation. In some embodiments, the present disclosure provides technologies for assessing various technologies, e.g., compounds, compositions, or methods. Among other things, the present Example provides technologies, e.g., cell growth inhibition assay, for assessing various technologies. […] In some embodiments, the following cell growth inhibition methods are utilized to assess provided technologies.
Neuroendocrine prostate cancer: Neuroendocrine prostate cancer line LASCPC-01 cells were cultured in DMEM F12 media with 5% FBS, 1% Penicillin/Streptomycin and HITES supplement (Hydrocortisone, Insulin, Transferrin, Estradiol and Sodium Selenite). Cells were plated at 1,425 cells/well of a 96 well plate. Compound and media were replenished every two days and at day 7 cell viability was assayed using Cell Titer Glo following manufacturer's instructions.
In some assessments, for cell growth inhibition, cells, e.g., MOLM13, NCI-H1048, and LASCPC-01 cells, were counted using a hemocytometer or automated cell counting in triplicates. In some assessments, proliferation in NEPC organoids as measured with Cell Titer Glo reagent (Promega). Growth inhibition was determined relative to vehicle control.

[3] = system: histone acetylation (e.g., AcH3K9); assay: Histone H3K9 acetylation (AcH3K9), Western Blot, MOLM-13 cells; type: cell-based; conditions: FIG. 2
Protocol: In some embodiments, an assessment is performed using cells. In some embodiments, cells were treated with various compounds before assessing KAT2A and/or KAT2B levels, histone (e.g., H3K9) acetylation levels, cell states, growth, etc.
Western Blot: In some assessments, MOLM13, NCI-H1048, LASCPC-01 and NEPC organoid cells were treated with compounds at certain concentrations for certain periods of time, and cell pellets were lysed by adding 1-part 4×laemmli Sample buffer (e.g., Bio-Rad Catalog #1610747) along with Mercaptoethanol (e.g., Bio-Rad Catalog #1610710) according to manufacturer's instructions, and 1-part RIPA buffer with 2×protease and phosphatase inhibitor. The samples were sonicated 30% amplitude, 35 seconds on and 35 seconds off for 1 cycle and boiled at 95° C. for 5 minutes. 30-35 μL of samples were loaded on a 4-15% Criterion™ TGX Stain-Free™ Protein Gel (Bio-rad, 5678084). In some assessments, NCI-H1048 flash frozen tumor pieces were resuspended in RIPA buffer and homogenized on TissueLyser II with steel beads at 30 Hz for 3 minutes. Samples were then centrifuged at […] at 4° C. for 15 minutes. BCA protein determination was performed and samples normalized for 1.95 ug/uL. 19.5 uL were loaded and run on similar gels as cell pellets. […]

[4] = system: neuroendocrine prostate cancer cells, e.g., LASCPC-01 cells; assay: Differentiation GSEA signatures from RNA-Seq, LASCPC-01; type: cell-based; conditions: FIG. 3
Protocol: In some embodiments, GSEA signatures are utilized for assessing cell states, differentiation, etc. In some assessments, differentiation GSEA signatures, e.g., from RNA-Seq was performed. A useful protocol is described herein as an example. In some assessments, LASCPC-01 cells, NEPC organoid cell pellets, or NCI-H1048 tumor pieces were flash frozen upon harvest and stored at −80° C. RNA was isolated, mRNA library was prepared (poly A enrichment) and sequencing was run. Reads were aligned to reference v38 using Kallis to generate gene count matrices for each sample. The gene count matrix was the input to the ML pipelines that generate normal atlas scores and cell state classification. It was also input to differential expression analysis using Edger in R. The output of differential expression was input to gene set enrichment analysis (GSEA) to define gene sets that were most shifted by treatment. For defining specific epithelial differentiation endpoints to generate the solid tumor differentiation box plots, cell state gene sets resulting from GSEA are consolidated by cell state to define a consensus set of genes that define epithelial differentiation. Other suitable technologies may also utilized in accordance with the present disclosure.

Compound: CN1C[C@H](Nc2cnn(C)c(=O)c2Br)C[C@H](c2ccc(C(=O)N3CCC(CN4CCN(c5ccc6c(c5)CN(C5CCC(=O)NC5=O)C6=O)CC4)CC3)cc2)C1 (stereo partly drawn) [Compound 22, 3-(5-(4-((1-(4-((3R,5R)-5-((5-bromo-1-methyl-6-oxo-1,6-dihydropyridazin-4-yl)amino)-1-methylpiperidin-3-yl)benzoyl)piperidin-4-yl)methyl)piperazin-1-yl)-1-oxoisoindolin-2-yl)piperidine-2,6-dione]
- tolerability (body weights relative to starting weight) [1]: well tolerated
- GI50 ([2]; 168 h, LASCPC-01, day 7, Cell Titer Glo, read-out: LASCPC GI50): 5.3 nM
- GI50 ([2]; LASCPC-01, comparison table with Ref-1, read-out: Growth GI50): 5 nM
- cell growth in vitro ([2]; LASCPC-01 cells, FIG. 3): inhibit cell growth in vitro and in vivo
- histone acetylation (e.g., AcH3K9) levels [3]: reduce histone acetylation (e.g., AcH3K9) levels
- induction of differentiation [4]: induce differentiation (e.g., epithelial, neural, and/or microglial)
